The test system of the experiment is store-operated Ca^2+ entry in PLP-B lymphocytes. The experiment can be described thus: Store-operated Ca2+ entry after thapsigargin depletion of ER Ca2+ stores in PLP-B lymphocytes. Conditions: PLP-B lymphocytes, % of inhibition (−) or activation. It is filed as cell-based. As to the method:
The effects of the molecules developed were tested on PLP-B lymphocytes. Store-operated Ca^2+ entry was induced by depletion of Endoplasmic Reticulum Ca^2+ stores (ER Ca^2+ stores) with thapsigargin (Tg) in a Ca^2+-free medium and measured following the addition of 1.8 mM of CaCl2) in the extracellular medium. The results are compared to the results obtained for known SOCE inhibitors SKF-96365, GSK-7975A, Synta 66.

Where [1] appears, read: Lymphocyte, 10 μM, DMSO control 100%, read-out: Effect on amplitude of SOCE Peak.
Where [2] appears, read: Lymphocyte, 10 μM, thapsigargin (Tg) peak, read-out: Effect on amplitude of Tg Peak.
Setting [3] is: Lymphocyte, 50 μM, DMSO control 100%, read-out: Effect on amplitude of SOCE Peak.
Where [4] appears, read: Lymphocyte, 50 μM, thapsigargin (Tg) peak, read-out: Effect on amplitude of Tg Peak.
The mark [5] stands for this setting: Lymphocyte, 100 μM, DMSO control 100%, read-out: Effect on amplitude of SOCE Peak.
The mark [6] stands for this setting: Lymphocyte, 100 μM, thapsigargin (Tg) peak, read-out: Effect on amplitude of Tg Peak.
Setting [7] is: Lymphocyte, DMSO control 100%, read-out: Effect on amplitude of SOCE Peak.
Where [8] appears, read: Lymphocyte, thapsigargin (Tg) peak, read-out: Effect on amplitude of Tg Peak.

Each structure is given as a SMILES string. Read-outs that look alike come from different tables or passages of the source. Marks after values point to notes of the source that are not given here.

In the case of `COc1ccc(COc2ccc(CCn3c(C(F)(F)F)nc4cc(N)ccc43)cc2)cc1` [6αt VAL 1-76], the inhibition at 10 µM is 3% under setting [1] and -1% under setting [2]. For the same compound, the inhibition at 50 µM is, setting by setting: under setting [3], 10%; under setting [4], -6%. For the same compound, the inhibition at 100 µM under setting [5] was 34% and the inhibition at 100 µM under setting [6] was 22%.
On to `COc1ccc(CCCOc2ccc(CCn3c(C(F)(F)F)nc4cc(N)ccc43)cc2)cc1` [6αu VAL 1-75], for which the inhibition at 10 µM is -6% under setting [1] and -5% under setting [2]. Besides, the inhibition at 50 µM is, setting by setting: under setting [3], 30%; under setting [4], -11%. Besides, the inhibition at 100 µM was 68% under setting [5] and -5% under setting [6].
As to `Nc1ccc2c(c1)nc(C(F)(F)F)n2CCc1ccc(OCCCc2ccccc2)cc1` [6αv VAL 1-64], the inhibition at 10 µM under setting [1] was -8%. For the same compound, the percent change in peak amplitude vs DMSO control (negative = inhibition, positive = activation) at 10 µM under setting [2] came to 0%. In addition, the inhibition at 50 µM is, setting by setting: under setting [3], 25%; under setting [4], -11%. Besides, the inhibition at 100 µM is 77% under setting [5] and -2% under setting [6].
As to `COc1ccc(COc2ccc(CCn3cnc4ccccc43)cc2)cc1` [6αz DAD 4-472], the inhibition at 10 µM reads like this: under setting [1], 15.4%; under setting [2], 1.6%. Also, the inhibition at 50 µM under setting [3] was determined as 13.7% and the inhibition at 50 µM under setting [4] turned out to be 1.9%. Besides, the inhibition at 100 µM under setting [5] was -5.9% and the inhibition at 100 µM under setting [6] was found to be 1.5%.
Regarding `FC(F)(F)c1cc(C(F)(F)F)n(CCc2ccccc2OCCc2ccccc2)n1` [6βaa DAD 3.535], the inhibition at 10 µM by setting is: under setting [1], 18%; under setting [2], 8%. Further, the inhibition at 50 µM under setting [3] turned out to be 20% and the inhibition at 50 µM under setting [4] was found to be 4%. For the same compound, the inhibition at 100 µM runs as follows: under setting [5], 29%; under setting [6], 11%.
`COc1ccc(CCCOc2ccc(CCn3cncn3)cc2)cc1` [6βe DAD 3.470]: the “Effect on amplitude of SOCE peak” value is given as −6.0% (50 μM, DMSO control 100%, listed as 6βe) and −21.0# % (100 μM, DMSO control 100%, listed as 6βe). Also, the “Effect on amplitude of Tg Peak” value (50 μM, thapsigargin (Tg) peak, listed as 6βe) is −31.0# %. Also, the inhibition at 100 µM under setting [6] stood at 31%.
Take `COc1ccc(COc2ccc(CCn3cnc(C(F)(F)F)n3)cc2)cc1` [6βg DAD 3.472]: the inhibition at 50 µM under setting [3] was found to be 5% and the inhibition at 50 µM under setting [4] worked out at 18%. Also, the inhibition at 100 µM under setting [5] was found to be 37% and the inhibition at 100 µM under setting [6] was 25%.
For `FC(F)(F)c1ncn(CCc2ccc(OCCCc3ccccc3)cc2)n1` [6βi DAD 3.475], the inhibition at 50 µM under setting [3] came to 13% and the inhibition at 50 µM under setting [4] is 6%. Also, the inhibition at 100 µM reads like this: under setting [5], 43%; under setting [6], 7%.
For `COc1ccc(COc2ccc(CCn3cccn3)cc2)cc1` [6βm DAD 2.306], the inhibition at 10 µM under setting [1] was -2%. In addition, the inhibition at 50 µM under setting [3] was -0.5%. Also, the inhibition at 100 µM under setting [5] is -16.8%.
In the case of `COc1ccc(CCOc2ccc(CCn3cccn3)cc2)cc1` [6βn DAD 2.307], the inhibition at 10 µM under setting [1] is -6.5%. The inhibition at 50 µM under setting [3] is 7.2%. The inhibition at 100 µM under setting [5] was determined as 62%.
Consider `COc1ccc(COc2ccc(CCn3ccc(C(F)(F)F)n3)cc2)cc1` [6βq DAD 2.333], for which the inhibition at 50 µM under setting [3] amounted to 5%. For the same compound, the inhibition at 100 µM under setting [5] amounted to 37%.
In the same order, the values of `FC(F)(F)c1ccn(CCc2ccc(OCCCc3ccccc3)cc2)n1` [6βt DAD 3.363] are 7.7% and 19.1%.
Turning to `COc1ccc(COc2ccc(CCn3nc(C(F)(F)F)cc3C(F)(F)F)cc2)cc1` [6βu DAD 2.334], under setting [1], the inhibition at 10 µM stood at 2%. For the same compound, under setting [3], the inhibition at 50 µM is -0.2%. The inhibition at 100 µM under setting [5] is -0.4%.
Consider `COc1ccc(CCOc2ccc(CCn3nc(C(F)(F)F)cc3C(F)(F)F)cc2)cc1` [6βv DAD 2.266], for which, under setting [3], the inhibition at 50 µM stood at 29%. The inhibition at 100 µM under setting [5] is 30%.
`COc1ccc(CCCOc2ccc(CCn3nc(C(F)(F)F)cc3C(F)(F)F)cc2)cc1` [6βw DAD 2.335]: the inhibition at 10 µM under setting [1] was 4.6%. Besides, under setting [3], the inhibition at 50 µM was -0.1%. Further, under setting [5], the inhibition at 100 µM was 11.8%.
As for `COc1ccc(CCCOc2cccc(CCn3ccc(C(F)(F)F)n3)c2)cc1` [6βy DAD 3.531], the inhibition at 10 µM is, setting by setting: under setting [1], 13%; under setting [2], 17%. In addition, the inhibition at 50 µM under setting [3] is 34% and the inhibition at 50 µM under setting [4] stood at 23%. Also, the inhibition at 100 µM reads like this: under setting [5], 64%; under setting [6], 30%.
Regarding `COc1ccc(CCOc2ccccc2CCn2nc(C(F)(F)F)cc2C(F)(F)F)cc1` [6βz DAD 3.536], the inhibition at 10 µM came to 30% under setting [1] and 9% under setting [2]. Moreover, the inhibition at 50 µM runs as follows: under setting [3], 37%; under setting [4], 12%. Also, the inhibition at 100 µM by setting is: under setting [5], 40%; under setting [6], 8%.
With `CS(=O)(=O)Oc1ccc(Cn2cnc3ccccc32)cc1` [8αa, 4-((1H-Benzo[d]imidazol-1-yl)methyl)phenyl methanesulfonate], the inhibition at 10 µM is, setting by setting: under setting [1], 20%; under setting [2], -1%. The inhibition at 50 µM reads like this: under setting [3], 9%; under setting [4], -5%. Moreover, the inhibition at 100 µM runs as follows: under setting [5], 23%; under setting [6], 7%.
`CS(=O)(=O)Oc1ccc(Cn2c(C(F)(F)F)nc3ccccc32)cc1` [8αc, 4-((2-(Trifluoromethyl)-1H-benzo[d]imidazol-1-yl)methyl)phenyl methane sulfonate]: the inhibition at 10 µM under setting [1] was found to be 14% and the inhibition at 10 µM under setting [2] was -10%. Besides, the inhibition at 50 µM by setting is: under setting [3], 9%; under setting [4], -10%. Further, the inhibition at 100 µM amounted to 24% under setting [5] and 32% under setting [6].
For `CS(=O)(=O)Oc1ccc(Cn2cccn2)cc1` [8βa, 4-((1H-Pyrazol-1-yl)methyl)phenylmethanesulfonate], the “Effect on amplitude of SOCE peak” value reads like this: (10 μM, DMSO control 100%) −30.0# %; (50 μM, DMSO control 100%) −27.0# %; (100 μM, DMSO control 100%) −25.0# %. Further, the “Effect on amplitude of Tg Peak” value is on record as −20.0# % (10 μM, thapsigargin (Tg) peak); −14.0// % (50 μM, thapsigargin (Tg) peak); −12.0// % (100 μM, thapsigargin (Tg) peak).
In the case of `CS(=O)(=O)Oc1ccc(Cn2cncn2)cc1` [8βb, 4-((1H-1,2,4-Triazol-1-yl)methyl)phenyl methanesulfonate], the inhibition at 0.1 µM runs as follows: under setting [7], 19%; under setting [8], 23%. Also, the inhibition at 1 µM reads like this: under setting [7], 23%; under setting [8], 9%. For the same compound, the inhibition at 10 µM is, setting by setting: under setting [1], 27%; under setting [2], 3%. Moreover, the inhibition at 50 µM is, setting by setting: under setting [3], 41%; under setting [4], -2%. In addition, the inhibition at 100 µM under setting [5] was found to be 35% and the inhibition at 100 µM under setting [6] turned out to be 6%.
In the case of `CS(=O)(=O)Oc1ccc(Cn2nc(C(F)(F)F)cc2C(F)(F)F)cc1` [8βc], the inhibition at 10 µM under setting [1] turned out to be 12% and the inhibition at 10 µM under setting [2] is -4%. The inhibition at 50 µM was 22% under setting [3] and 2% under setting [4]. In addition, the inhibition at 100 µM by setting is: under setting [5], 31%; under setting [6], 21%.
For the compound `Oc1ccc(Cn2cnc3ccccc32)cc1` [9αa, 1-(4-hydroxyphenylmethyl)-1H-Benzo[d]imidazol], the inhibition at 10 µM was -2% under setting [1] and -13% under setting [2]. For the same compound, the inhibition at 50 µM under setting [3] came out at 4% and the inhibition at 50 µM under setting [4] was found to be 1%. The inhibition at 100 µM by setting is: under setting [5], -3%; under setting [6], 12%.
For `Oc1ccc(Cn2c(C(F)(F)F)nc3ccccc32)cc1` [9αc, 1-(4-hydroxyphenylmethyl)-2-trifluoromethyl-1H-Benzo[d]imidazol], the inhibition at 10 µM by setting is: under setting [1], 23%; under setting [2], 6%. Also, the inhibition at 50 µM by setting is: under setting [3], 16%; under setting [4], -1%. Also, the inhibition at 100 µM by setting is: under setting [5], 33%; under setting [6], -6%.

The record behind these values is patent US12686664B2, “SOCE inhibitors and therapeutic uses thereof” (Institut National de la Santé et de la Recherche Médicale …, priority 2020, dated 2026).
